Data: patent US10201531B2, “Indazolyl-oxo-isothiazole compounds” (MOCHIDA PHARMACEUTICAL CO., LTD., priority 2015, dated 2019)

System: Nrf2
Assay: Evaluation of Nrf2 activation ability (Nrf2d-LacZ / Keap1 HEK293 reporter, Beta-Glo luminescence)
Assay type: cell-based, human
Conditions: Pharmacological Test Example 1, rated A/B/C
Procedure, shortened: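 HEK293 cells stably expressing a human Nrf2 degron–LacZ fusion plus human Keap1 were exposed to compound for 3 h at 37° C. Reporter β-galactosidase was read by Beta-Glo luminescence after 1 h at RT. Activation is given as % of the signal with 100 nM CDDO-Im.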

| EC50 [µM] | Structure (SMILES) |
| --- | --- |
| < 1 | [O-][s+]1nc(O)cc1-n1cc(-c2ccc3c(c2)CCCC3)cn1 (stereo not drawn) [Example 342] |
| 1 to 5 | [O-][s+]1nc(O)cc1-n1cc(-c2cccc3cnccc23)cn1 (stereo not drawn) [Example 343] |
| < 1 | [O-][s+]1nc(O)cc1-n1cc(-c2cccc3cccnc23)cn1 (stereo not drawn) [Example 344] |
| < 1 | [O-][s+]1nc(O)cc1-n1cc(C2=Cc3ccccc3C2)cn1 (stereo not drawn) [Example 345] |
| 1 to 5 | [O-][s+]1nc(O)cc1-n1cc(-c2ccc3c(c2)OCCO3)cn1 (stereo not drawn) [Example 346] |
| < 1 | CN1CCOc2cc(-c3cnn(-c4cc(O)n[s+]4[O-])c3)ccc21 (stereo not drawn) [Example 347] |
| < 1 | [O-][s+]1nc(O)cc1-n1cc(C2=Cc3ccccc3CC2)cn1 (stereo not drawn) [Example 349] |
| < 1 | [O-][s+]1nc(O)cc1-n1cc(-c2ccc3ncccc3c2)cn1 (stereo not drawn) [Example 350] |
| 1 to 5 | [O-][s+]1nc(O)cc1-n1cc(-c2ccc3ccncc3c2)cn1 (stereo not drawn) [Example 351] |
| < 1 | Cn1ccc2c(-c3cnn(-c4cc(O)n[s+]4[O-])c3)cccc21 (stereo not drawn) [Example 352] |
| < 1 | Cn1ccc2ccc(-c3cnn(-c4cc(O)n[s+]4[O-])c3)cc21 (stereo not drawn) [Example 353] |
| < 1 | Cc1nc2cc(-c3cnn(-c4cc(O)n[s+]4[O-])c3)ccc2s1 (stereo not drawn) [Example 354] |
| 1 to 5 | [O-][s+]1nc(O)cc1-n1cc(-c2cccc3ncccc23)cn1 (stereo not drawn) [Example 355] |
| 1 to 5 | [O-][s+]1nc(O)cc1-n1cc(-c2ccc3cnccc3c2)cn1 (stereo not drawn) [Example 356] |
| < 1 | [O-][s+]1nc(O)cc1-n1cc(-c2ccc3cccnc3c2)cn1 (stereo not drawn) [Example 357] |
| < 1 | Cn1ncc2c(-c3cnn(-c4cc(O)n[s+]4[O-])c3)cccc21 (stereo not drawn) [Example 360] |
| < 1 | N#Cc1ccc(Oc2ccc(-c3cnn(-c4cc(O)n[s+]4[O-])c3)cc2)cc1 (stereo not drawn) [Example 362] |
| < 1 | [O-][s+]1nc(O)cc1-n1cc(-c2ccccc2)cn1 (stereo not drawn) [Example 363] |
| 1 to 5 | O=S(=O)(c1cccc(COc2ccc(-c3cnn(-c4cc(O)n[s+]4[O-])c3)cc2)c1)N1CCCCC1 (stereo not drawn) [Example 366] |
| < 1 | [O-][s+]1nc(O)cc1-n1cc(-c2cccc(C(F)(F)F)c2)cn1 (stereo not drawn) [Example 367] |
| < 1 | [O-][s+]1nc(O)cc1-n1cc(-c2cc(C(F)(F)F)cc(C(F)(F)F)c2)cn1 (stereo not drawn) [Example 368] |
| 1 to 5 | N#CC1(c2ccc(-c3cnn(-c4cc(O)n[s+]4[O-])c3)cc2)CC1 (stereo not drawn) [Example 369] |

| EC50 [µM] | Structure (SMILES) |
| --- | --- |
| 5 to 10 | O=C(Cc1ccc(-c2cnn(-c3cc(O)n[s+]3[O-])c2)cc1)N1CCc2ccccc21 (stereo not drawn) [Example 373] |
| 1 to 5 | [O-][s+]1nc(O)cc1-n1cc(-c2ccc(Oc3ccc(C(F)(F)F)cc3Cl)cc2)cn1 (stereo not drawn) [Example 374] |
| 1 to 5 | [O-][s+]1nc(O)cc1-n1cc(-c2ccc(OCc3cccc(C(F)(F)F)c3)cc2)cn1 (stereo not drawn) [Example 375] |
| 1 to 5 | Cc1cccc(C)c1COc1ccc(-c2cnn(-c3cc(O)n[s+]3[O-])c2)cc1 (stereo not drawn) [Example 376] |
| < 1 | [O-][s+]1nc(O)cc1-n1cc(-c2ccc(Oc3ccccc3)cc2)cn1 (stereo not drawn) [Example 377] |
| < 1 | [O-][s+]1nc(O)cc1-n1cc(-c2ccc(Oc3ccccc3)cc2)cn1 (stereo not drawn) [Example 378] |
| < 1 | [O-][s+]1nc(O)cc1-n1cc(C2=Cc3ccccc3CC2)cn1 (stereo not drawn) [Example 381] |
| < 1 | [O-][s+]1nc(O)cc1-n1cc(-c2cccc3cccnc23)cn1 (stereo not drawn) [Example 382] |
| < 1 | [O-][s+]1nc(O)cc1-n1cc(-c2ccc3cccnc3c2)cn1 (stereo not drawn) [Example 383] |
| < 1 | [O-][s+]1nc(O)cc1-n1cc(C2=Cc3ccccc3C2)cn1 (stereo not drawn) [Example 384] |
| 1 to 5 | [O-][s+]1nc(O)cc1-n1cc(-c2ccccn2)cn1 (stereo not drawn) [Example 386] |
| < 1 | COc1ccccc1-c1cnn(-c2cc(O)n[s+]2[O-])c1 (stereo not drawn) [Example 387] |
| < 1 | COc1cccc(-c2cnn(-c3cc(O)n[s+]3[O-])c2)c1 (stereo not drawn) [Example 388] |
| < 1 | COc1ccc(-c2cnn(-c3cc(O)n[s+]3[O-])c2)cc1 (stereo not drawn) [Example 389] |
| 1 to 5 | COc1cc(-c2cnn(-c3cc(O)n[s+]3[O-])c2)cc(OC)c1OC (stereo not drawn) [Example 390] |
| < 1 | COc1ccc(-c2cnn(-c3cc(O)n[s+]3[O-])c2)cn1 (stereo not drawn) [Example 392] |
| < 1 | COc1ncccc1-c1cnn(-c2cc(O)n[s+]2[O-])c1 (stereo not drawn) [Example 393] |
| 1 to 5 | [O-][s+]1nc(O)cc1-n1cc(C2=Cc3ccccc3C2)cn1 (stereo not drawn) [Example 394] |
| 1 to 5 | [O-][s+]1nc(O)cc1-n1cc(-c2cccnc2C(F)(F)F)cn1 (stereo not drawn) [Example 395] |
| 1 to 5 | [O-][s+]1nc(O)cc1-n1cc(-c2ccc(C(F)(F)F)nc2)cn1 (stereo not drawn) [Example 396] |
| < 1 | [O-][s+]1nc(O)cc1-n1cc(C2Cc3ccccc3C2)cn1 (stereo not drawn) [Example 397] |
| 1 to 5 | COc1cncc(-c2cnn(-c3cc(O)n[s+]3[O-])c2)c1 (stereo not drawn) [Example 398] |

| EC50 [µM] | Structure (SMILES) |
| --- | --- |
| < 1 | COc1ccc(-c2cnn(-c3cc(O)n[s+]3[O-])c2)c(OC)n1 (stereo not drawn) [Example 399] |
| 1 to 5 | CNc1ccc(-c2cnn(-c3cc(O)n[s+]3[O-])c2)cn1 (stereo not drawn) [Example 400] |
| 5 to 10 | Cc1cncc(-c2cnn(-c3cc(O)n[s+]3[O-])c2)c1 (stereo not drawn) [Example 401] |
| 1 to 5 | COc1ccc(-c2cnn(-c3cc(O)n[s+]3[O-])c2)c(C)n1 (stereo not drawn) [Example 402] |
| < 1 | COc1cc(-c2cnn(-c3cc(O)n[s+]3[O-])c2)ccn1 (stereo not drawn) [Example 404] |
| 1 to 5 | CN(C)Cc1ccc(-c2cnn(-c3cc(O)n[s+]3[O-])c2)cc1 (stereo not drawn) [Example 405] |
| 5 to 10 | CN(C)Cc1cccc(-c2cnn(-c3cc(O)n[s+]3[O-])c2)c1 (stereo not drawn) [Example 406] |
| 1 to 5 | [O-][s+]1nc(O)cc1-n1cc(-c2cnccn2)cn1 (stereo not drawn) [Example 407] |
| < 1 | [O-][s+]1nc(O)cc1-n1cc(-c2cnc3ccccc3n2)cn1 (stereo not drawn) [Example 408] |
| 1 to 5 | [O-][s+]1nc(O)cc1-n1cc(CCOc2cccnc2)cn1 (stereo not drawn) [Example 412] |
| 1 to 5 | Cc1cnc(-c2cnn(-c3cc(O)n[s+]3[O-])c2)cn1 (stereo not drawn) [Example 413] |
| < 1 | [O-][s+]1nc(O)cc1-n1cc(-c2cnc(C3CC3)cn2)cn1 (stereo not drawn) [Example 414] |
| 1 to 5 | [O-][s+]1nc(O)cc1-n1cc(-c2cnc(C(F)(F)F)cn2)cn1 (stereo not drawn) [Example 415] |
| 1 to 5 | Cc1cncc(-c2cnn(-c3cc(O)n[s+]3[O-])c2)n1 (stereo not drawn) [Example 416] |
| 1 to 5 | [O-][s+]1nc(O)cc1-n1cc2cc(-c3cnccn3)ccc2n1 (stereo not drawn) [Example 417] |
| 1 to 5 | Cn1c(=O)n(-c2cnn(-c3cc(O)n[s+]3[O-])c2)c2ccccc21 (stereo not drawn) [Example 419] |
| 1 to 5 | CC1(C)C(=O)N(c2cnn(-c3cc(O)n[s+]3[O-])c2)c2ccccc21 (stereo not drawn) [Example 420] |
| 1 to 5 | Cc1cnc(-c2cnn(-c3cc(O)n[s+]3[O-])c2)c(C)n1 (stereo not drawn) [Example 421] |
| 5 to 10 | [O-][s+]1nc(O)cc1-n1cc(-n2cccn2)cn1 (stereo not drawn) [Example 422] |
| 1 to 5 | [O-][s+]1nc(O)cc1-n1cc(-c2ncccn2)cn1 (stereo not drawn) [Example 423] |
| 5 to 10 | Cn1c(=O)oc2cc(-c3cnn(-c4cc(O)n[s+]4[O-])c3)ccc21 (stereo not drawn) [Example 424] |
| 1 to 5 | CN1C(=O)C(C)(C)c2cc(-c3cnn(-c4cc(O)n[s+]4[O-])c3)ccc21 (stereo not drawn) [Example 425] |

| EC50 [µM] | Structure (SMILES) |
| --- | --- |
| 5 to 10 | [O-][s+]1nc(O)cc1-n1cc(-c2cnccn2)cn1 (stereo not drawn) [Example 428] |
| 1 to 5 | O=c1oc2cc(-c3cnn(-c4cc(O)n[s+]4[O-])c3)ccc2n1CC1CC1 (stereo not drawn) [Example 429] |
| 1 to 5 | CC1(C)C(=O)N(CC2CC2)c2ccc(-c3cnn(-c4cc(O)n[s+]4[O-])c3)cc21 (stereo not drawn) [Example 430] |
| 1 to 5 | Cc1ccnc(-c2cnn(-c3cc(O)n[s+]3[O-])c2)n1 (stereo not drawn) [Example 433] |
| < 1 | COc1nc(Cl)ccc1-c1cnn(-c2cc(O)n[s+]2[O-])c1 (stereo not drawn) [Example 435] |
| < 1 | [O-][s+]1nc(O)cc1-n1cc(C#Cc2ccc(Cl)nc2)cn1 (stereo not drawn) [Example 436] |
| 1 to 5 | COc1nc(-c2ccc(C3CC3)nc2)ccc1-c1cnn(-c2cc(O)n[s+]2[O-])c1 (stereo not drawn) [Example 437] |
| 1 to 5 | [O-][s+]1nc(O)cc1-n1cc(-c2ccc(F)nc2)cn1 (stereo not drawn) [Example 438] |
| < 1 | [O-][s+]1nc(O)cc1-n1cc(-c2ccc(Cl)nc2)cn1 (stereo not drawn) [Example 439] |
| < 1 | COc1nc(Cl)ccc1-c1cnn(-c2cc(O)n[s+]2[O-])c1 (stereo not drawn) [Example 440] |
| < 1 | [O-][s+]1nc(O)cc1-n1cc(-c2ccc(-c3ccc(N4CCCC4)nc3)nc2)cn1 (stereo not drawn) [Example 441] |
| < 1 | [O-][s+]1nc(O)cc1-n1cc(-c2ccc(-c3ccc(N4CCCCC4)nc3)nc2)cn1 (stereo not drawn) [Example 442] |
| 1 to 5 | [O-][s+]1nc(O)cc1-n1cc(-c2ccc(F)nc2)cn1 (stereo not drawn) [Example 443] |
| < 1 | COc1ccc(-c2ccc(-c3cnn(-c4cc(O)n[s+]4[O-])c3)cn2)cn1 (stereo not drawn) [Example 444] |
| 1 to 5 | [O-][s+]1nc(O)cc1-n1cc2cc(OCc3cccnc3)ccc2n1 (stereo not drawn) [Example 445] |
| < 1 | COc1cc(-c2ccc(-c3cnn(-c4cc(O)n[s+]4[O-])c3)cn2)ccn1 (stereo not drawn) [Example 446] |
| < 1 | COc1ncccc1-c1ccc(-c2cnn(-c3cc(O)n[s+]3[O-])c2)cn1 (stereo not drawn) [Example 447] |
| 1 to 5 | [O-][s+]1nc(O)cc1-n1cc(CCc2ccc(Cl)nc2)cn1 (stereo not drawn) [Example 452] |
| < 1 | COc1nc(-c2ccnc(N3CCCC3)c2)ccc1-c1cnn(-c2cc(O)n[s+]2[O-])c1 (stereo not drawn) [Example 454] |
| 1 to 5 | CN(c1ccc(-c2cnn(-c3cc(O)n[s+]3[O-])c2)cn1)C1CCOCC1 (stereo not drawn) [Example 459] |
| 1 to 5 | CN1CCOc2cc(-c3ccc(CCc4cnn(-c5cc(O)n[s+]5[O-])c4)cn3)cnc21 (stereo not drawn) [Example 461] |
